# According to ChEMBL document CHEMBL2146401, “Synthesis and biological evaluation of novel homochiral carbocyclic nucleosides from 1-amino-2-indanols” (Bioorg Med Chem, 2012):
# What was measured:
# [1] = Cytotoxicity against african green monkey Vero cells assessed as cell viability after 2 days by MTS/PMS assay; assay type: cell-based; conditions: chlorocebus sabaeus
# [2] = Cytotoxicity against bovine MDBK cells assessed as cell viability after 3 days by MTS/PMS assay; assay type: cell-based, Bos taurus; conditions: cattle
# [3] = Cytotoxicity against human HepG2(2.2.15) cells assessed as cell viability after 9 days by MTS/PMS assay; assay type: cell-based
# Human alphaherpesvirus 1 [4] = assay: Antiviral activity against Herpes simplex virus (type 1 / strain F) infected in Vero cells assessed as reduction of number of viral plaques at 100 uM after 2 days relative to control; assay type: functional; conditions: Human alphaherpesvirus 1, strain F, 48 h
# [5] = Antiviral activity against Bovine viral diarrhea virus 1-NADL ATCC VR534 infected in MDBK cells assessed as reduction of viral cytopathic effect at 100 uM after 2 days by MTS assay relative to control; assay type: functional; conditions: Bovine viral diarrhea virus isolates and strains, 48 h
# Hepatitis B virus [6] = assay: Antiviral activity against Hepatitis B virus infected in HepG2(2.2.15) cells assessed as reduction in HBsAg level at 100 uM after 9 days by ELISA relative to control; assay type: functional; conditions: HepG2 2.2.15, 216 h
# Human alphaherpesvirus 1 [7] = assay: Antiviral activity against Herpes simplex virus (type 1 / strain F) infected in Vero cells assessed as reduction of number of viral plaques after 2 days; assay type: functional, organism-based; conditions: Human alphaherpesvirus 1, strain F, 48 h
# [8] = Antiviral activity against Bovine viral diarrhea virus 1-NADL ATCC VR534 infected in MDBK cells assessed as reduction of viral cytopathic effect after 2 days bt MTS assay; assay type: functional, cell-based; conditions: Bovine viral diarrhea virus isolates and strains, 48 h
# [9] = Cytotoxicity against bovine MDBK cells assessed as cell viability after 72 hrs by MTS/PMS assay; assay type: cell-based, Bos taurus; conditions: cattle
# [10] = Cytotoxicity against african green monkey Vero cells assessed as cell viability after 72 hrs by MTS/PMS assay; assay type: cell-based; conditions: chlorocebus sabaeus
# [11] = Cytotoxicity against human HepG2(2.2.15) cells assessed as cell viability after 72 hrs by MTS/PMS assay; assay type: cell-based
# Human alphaherpesvirus 1 [12] = assay: Antiviral activity against Herpes simplex virus (type 1 / strain F) infected in Vero cells assessed as reduction of number of viral plaques at 31.25 uM after 2 days relative to control; assay type: functional; conditions: Human alphaherpesvirus 1, strain F, 48 h
# Hepatitis B virus [13] = assay: Antiviral activity against Hepatitis B virus infected in HepG2(2.2.15) cells assessed as reduction in HBsAg level at 20 uM after 9 days by ELISA; assay type: functional; conditions: HepG2 2.2.15, 216 h
SMILES,CC50 at 48 h [1] [µM],CC50 at 72 h [2] [µM],CC50 at 216 h [3] [µM],inhibition at 100 µM (Human alphaherpesvirus 1 [4]) [%],inhibition at 100 µM (Hepatitis B virus [6]) [%],also measured
O[C@H]1Cc2ccccc2[C@H]1n1cnc2c(Cl)ncnc21,> 500,> 500,> 500,23.2,30.8,inhibition at 100 µM [5]: 19.7%
Nc1nc2c(ncn2COCCO)c(=O)[nH]1 [ACYCLOVIR],–,–,–,–,–,EC50 (Human alphaherpesvirus 1 [7]): 0.5 µM
NC(=O)c1ncn([C@@H]2O[C@H](CO)[C@@H](O)[C@H]2O)n1 [RIBAVIRIN],–,–,–,–,–,EC50 [8]: 4.6 µM
Oc1ncnc2c1nnn2[C@@H]1c2ccccc2C[C@H]1O,> 500,> 500,> 500,–,16.6,–
Oc1ncnc2c1nnn2[C@H]1c2ccccc2C[C@@H]1O,> 500,> 500,> 500,–,25.2,–
Oc1ncnc2c1nnn2[C@@H]1c2ccccc2C[C@@H]1O,> 500,> 500,> 500,12.8,35.3,–
Nc1ncnc2c1nnn2[C@@H]1c2ccccc2C[C@@H]1O,202,> 500,> 500,–,17.6,inhibition at 100 µM [5]: 19.4%
Oc1ncnc2c1nnn2[C@H]1c2ccccc2C[C@H]1O,> 500,> 500,> 500,15.8,27.7,–
O[C@@H]1Cc2ccccc2[C@H]1n1cnc2c(Cl)ncnc21,> 500,> 500,> 500,7.2,22.6,–
O[C@H]1Cc2ccccc2[C@@H]1n1cnc2c(Cl)ncnc21,> 500,> 500,> 500,16.2,14.2,–
O[C@@H]1Cc2ccccc2[C@@H]1n1cnc2c(Cl)ncnc21,–,–,–,–,–,CC50 at 72 h [9]: 14.3 µM; CC50 at 72 h [10]: 254 µM; CC50 at 72 h [11]: 308 µM; inhibition at 31.25 µM (Human alphaherpesvirus 1 [12]): 20.9%
Nc1ncnc2c1nnn2[C@@H]1c2ccccc2C[C@H]1O,> 500,> 500,> 500,7.8,42.1,–
Nc1ncnc2c1nnn2[C@H]1c2ccccc2C[C@@H]1O,311,> 500,> 500,14.5,37.2,–
Nc1ncnc2c1nnn2[C@H]1c2ccccc2C[C@H]1O,> 500,> 500,> 500,20.9,41.4,inhibition at 100 µM [5]: 42.1%
Nc1ccn([C@@H]2CS[C@H](CO)O2)c(=O)n1 [LAMIVUDINE],–,–,–,–,–,inhibition at 20 µM (Hepatitis B virus [13]): 45%
